Data published in US12139492B2 (Endotarget Inc., priority 2021, dated 2024).
Where two headings read alike, the source gives them in different places.

Key:
Mino cells = assay: Antiproliferative effect, MTS cell viability assay, Mino cells; assay type: cell-based; conditions: Homo sapiens, MINO, Mino mantle cell lymphoma cells; read-out: IC50 (anti-proliferation) Mino cells
How it was run: (§1)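 MTS read-out, A490 of formazan from metabolically active cells; compound 0–10 μM (0, 0.001, 0.01, 0.1, 1, 10 μM), 72 h exposure.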

JeKo-1 cells = assay: Antiproliferative effect, MTS cell viability assay, JeKo-1 cells; assay type: cell-based; conditions: Homo sapiens; JeKo-1 mantle cell lymphoma cells; read-out: IC50 (anti-proliferation) JeKO-1 cells
How it was run: as §1

BTK = BTK (Homo sapiens, UniProt Q06187); assay: Degradation of BTK protein in Namalwa cells (Western blot; DC50, Dmax); conditions: for DC50: cell line not given
Chain of BTK (Q06187 whole entry): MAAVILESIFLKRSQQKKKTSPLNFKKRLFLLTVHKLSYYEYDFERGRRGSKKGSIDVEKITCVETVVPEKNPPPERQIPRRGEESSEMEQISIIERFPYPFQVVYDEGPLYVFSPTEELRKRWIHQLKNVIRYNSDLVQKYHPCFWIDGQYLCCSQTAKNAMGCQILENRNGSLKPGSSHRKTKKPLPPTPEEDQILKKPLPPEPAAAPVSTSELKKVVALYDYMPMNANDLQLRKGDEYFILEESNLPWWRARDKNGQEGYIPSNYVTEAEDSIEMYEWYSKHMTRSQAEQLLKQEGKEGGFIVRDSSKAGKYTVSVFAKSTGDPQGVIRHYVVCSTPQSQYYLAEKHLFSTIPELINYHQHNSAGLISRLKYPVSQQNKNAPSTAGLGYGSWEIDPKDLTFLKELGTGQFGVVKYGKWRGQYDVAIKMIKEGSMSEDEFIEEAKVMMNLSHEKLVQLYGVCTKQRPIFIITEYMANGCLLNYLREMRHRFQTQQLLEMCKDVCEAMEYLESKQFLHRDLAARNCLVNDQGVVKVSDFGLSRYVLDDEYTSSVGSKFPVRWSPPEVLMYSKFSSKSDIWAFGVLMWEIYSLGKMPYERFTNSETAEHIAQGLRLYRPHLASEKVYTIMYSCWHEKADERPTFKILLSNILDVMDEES

[1] = read-out: DC50 (BTK degradation), concentration giving 50% reduction of BTK expression level
[2] = read-out: Dmax (BTK degradation)

Row | SMILES | Dmax (BTK) | DC50 (BTK; BTK degradation) | DC50 (BTK; [1]) | Dmax (BTK; [2]) | IC50 (Mino cells) | IC50 (JeKo-1 cells)
1 | NC(=O)c1c(-c2ccc(Oc3ccccc3)cc2)nn2c1NCCC2C1CCN(CC2CCN(C(=O)N3CCC(N4CCC(c5ccc6c(c5)C(=O)N(C5CCC(=O)NC5=O)C6=O)CC4)CC3)CC2)CC1 (centres unmarked) [Compound 367, 7-(1-((1-(4-(2-(2,6-dioxopiperidin-3-yl)-1,3-dioxoisoindolin-5-yl)-[1,4′-bipiperidine]-1′-carbonyl)piperidin-4-yl)methyl)piperidin-4-yl)-2-(4-phenoxyphenyl)-4,5,6,7-tetrahydropyrazolo[1,5-a]pyrimidine-3-carboxamide] | > 90% | 10 to 50 nM | – | – | < 1000 nM | 1000 to 10000 nM
2 | Nc1ncnc2c1c(-c1ccc(Oc3ccccc3)cc1)nn2C1CCN(C2CCN(C(=O)N3CCN(CCCN4CCC(c5ccc6c(c5)CN(C5CCC(=O)NC5=O)C6=O)CC4)CC3)CC2)CC1 (centres unmarked) [Compound 262, 3-(5-(1-(3-(4-(4-(4-amino-3-(4-phenoxyphenyl)-1H-pyrazolo[3,4-d]pyrimidin-1-yl)-[1,4′-bipiperidine]-1′-carbonyl)piperazin-1-yl)propyl)piperidin-4-yl)-1-oxoisoindolin-2-yl)piperidine-2,6-dione] | > 75% | > 50 nM | – | – | > 10000 nM | 1000 to 10000 nM
3 | Nc1ncnc2c1c(-c1ccc(Oc3ccccc3)cc1)nn2C1CCN(C2CCN(C(=O)N3CCN(CCC4CCN(c5ccc6c(c5)C(=O)N(C5CCC(=O)NC5=O)C6=O)CC4)CC3)CC2)CC1 (centres unmarked) [Compound 247, 5-(4-(2-(4-(4-(4-amino-3-(4-phenoxyphenyl)-1H-pyrazolo[3,4-d]pyrimidin-1-yl)-[1,4′-bipiperidine]-1′-carbonyl)piperazin-1-yl)ethyl)piperidin-1-yl)-2-(2,6-dioxopiperidin-3-yl)isoindoline-1,3-dione] | > 75% | 10 to 50 nM | – | – | 1000 to 10000 nM | 1000 to 10000 nM
4 | NC(=O)c1c(-c2ccc(Oc3ccccc3)cc2)nn2c1NCCC2C1CCN(C2CCN(C(=O)N3CCC(C4CCN(c5ccc6c(c5)C(=O)N(C5CCC(=O)NC5=O)C6=O)CC4)CC3)CC2)CC1 (centres unmarked) [Compound 343, 7-(1′-(1′-(2-(2,6-dioxopiperidin-3-yl)-1,3-dioxoisoindolin-5-yl)-[4,4′-bipiperidine]-1-carbonyl)-[1,4′-bipiperidin]-4-yl)-2-(4-phenoxyphenyl)-4,5,6,7-tetrahydropyrazolo[1,5-a]pyrimidine-3-carboxamide] | > 90% | < 10 nM | – | – | 1000 to 10000 nM | < 1000 nM
5 | Nc1ncnc2c1c(-c1ccc(Oc3ccccc3)cc1)nn2C1CCN([C@@H]2CCN(CC3CN(c4ccc5c(c4)C(=O)N(C4CCC(=O)NC4=O)C5=O)C3)C2)CC1 (stereo partly drawn) [Compound 425a, 5-(3-(((R)-3-(4-(4-amino-3-(4-phenoxyphenyl)-1H-pyrazolo[3,4-d]pyrimidin-1-yl)piperidin-1-yl)pyrrolidin-1-yl)methyl)azetidin-1-yl)-2-(2,6-dioxopiperidin-3-yl)isoindoline-1,3-dione] | – | – | 10 to 50 nM | > 90% | 1000 to 10000 nM | 1000 to 10000 nM
6 | NC(=O)c1c(-c2ccc(Oc3ccccc3)cc2)nn2c1NCC[C@H]2C1CCN(CC2CCN(C(=O)N3CCN(C4CCN(c5ccc6c(c5)C(=O)N(C5CCC(=O)NC5=O)C6=O)CC4)CC3)CC2)CC1 (some centres unmarked) [Compound 401] | – | – | 10 to 50 nM | > 90% | 1000 to 10000 nM | 1000 to 10000 nM

Now from value to compound, other results behind:

Row | Dmax (BTK) | DC50 (BTK; BTK degradation) | DC50 (BTK; [1]) | Dmax (BTK; [2]) | SMILES | IC50 (Mino cells) | IC50 (JeKo-1 cells)
7 | – | – | < 10 nM | > 90% | Nc1ncnc2c1c(-c1ccc(Oc3ccccc3)cc1)nn2C1CCC(C(=O)N2CC(N3CCN(c4ccc5c(c4)CN(C4CCC(=O)NC4=O)C5=O)CC3)C2)CC1 (centres unmarked) [Compound 512, 3-(5-(4-(1-(4-(4-amino-3-(4-phenoxyphenyl)-1H-pyrazolo[3,4-d]pyrimidin-1-yl)cyclohexane-1-carbonyl)azetidin-3-yl)piperazin-1-yl)-1-oxoisoindolin-2-yl)piperidine-2,6-dione] | < 1000 nM | < 1000 nM
8 | – | – | 10 to 50 nM | > 90% | NC1=NC=NC2C1C(c1ccc(Oc3ccccc3)cc1)=NN2C1CCCN(C2CN(C(=O)N3CC(C4CN(c5ccc6c(c5)C(=O)N(C5CCC(=O)NC5=O)C6=O)C4)C3)C2)C1 (centres unmarked) [Compound 501] | 1000 to 10000 nM | < 1000 nM
